Results taken from patent US20210386813A1, “COMPOSITION FOR TREATING OVERWEIGHT AND/OR OBESITY” (NEXIRA, priority 2018, published 2021).
Marks after values point to notes of the source that are not given here.

Columns and labels:
adipocytes = assay: Lipolysis study of mature adipocytes (glycerol and NEFA release); format: cell-based; settings: human adipocytes, 2 h at 37° C.; forskolin 1 μM, isoproterenol 0.1 μM; 100 = Base control
Procedure: The quantification of the production of glycerol is performed by means of the Glycerol Assay Kit test kit available from Randox under the reference GY105.
The quantification of the production of non-esterified fatty acids is performed by the NEFA HR2—RI Set, NEFA HR2—R2 Set and NEFA Standard test kits available from Fujifilm Wako Chemicals Europe under the respective references 434-91795, 436-91995 and 270-77000.
Each of these kits is based on the production of a colored compound. Thus, the respective concentrations of glycerol and non-esterified fatty acids are determined by means of optical absorbance measurements, and the comparison of these measurements with known absorbance ranges for glycerol and non-esterified fatty acid concentrations. The values are normalized by DNA quantification by means of the Quant-iT® PicoGreen® (Invitrogen®) kit available from ThermoFisher Scientific under the reference P7589.
Adipocytes coming from humans are used for the lipolysis study.
The adipocytes are prepared from subcutaneous adipose tissue digested by collagenase followed by a low centrifugation.
The adipocytes are incubated in a Krebs-Ringer bicarbonate (KRB) buffer solution, sometimes containing basolateral medium of caco-2 cells exposed with, either predetermined concentrations of extract(s) (at a rate of one 1:8 dilution each), or with reference products. The incubation time is 2 h at a temperature of 37° C. The cell culture medium is subsequently harvested and frozen at a temperature of −20° C. for use in the glycerol and NEFA tests. The adipocytes are also harvested for the DNA quantification.
Forskolin (1 μM, available from Sigma-Aldrich under the reference F6886) and isoproterenol (0.1 μM, available from Sigma-Aldrich under the reference 16504) are used as lipolysis activators.
The results are expressed in percentages in relation to the results obtained for respective BM media without extracts. The statistical analyses are performed by placing the BM environments comprising the extracts in relation with the respective BM environments without extracts.

preadipocytes [1] = assay: Preadipocyte differentiation and lipid accumulation (adipogenesis) study, BODIPY fluorescence; format: cell-based; settings: human preadipocytes; GW9662 0.1 μM; relative to differentiated cells
Procedure: In practice, the effects of the bioavailable extracts on the lipid accumulation are studied by measuring the accumulation of lipid droplets in the differentiated preadipocytes, that is to say in the adipocytes. The measurement is optical and is performed by fluorescence.
Preadipocytes coming from humans are used for the lipid accumulation study.
The three adipose tissue donors are adult females undergoing a cosmetic or reconstructive surgery intervention.
The preadipocytes are isolated by digestion and centrifugation in accordance with the protocol described for the cytotoxicity study (I) above. […]
The quantification is based on fluorescence intensity measurements on images. The acquisition and the processing of images includes particularly: • the acquisition of microphotographs with a video microscope using the so-called Apotome technology (7 micrographs per well, 3 wells per processing condition); • the quantification of the lipid accumulation by the treatment and the image analysis of the ImageJ software developed by National Institutes of Health (NIH); • the determination of the number of nuclei by means of a shape detection and shape sorting algorithm based on the nucleus size and the circularity of the nucleus; • the connection between the fluorescence detected and the number of nuclei. […]
Fluorescence microphotographs are performed to quantify the lipid accumulation (Bodipy®). […]

UCP1 = assay: Adipose tissue phenotypic orientation (thermogenesis) study, UCP1 expression by immunofluorescence; format: cell-based; settings: human preadipocytes; GW9662; relative to differentiated cells
Description: The Applicant evaluated the effects of a multitude of bioavailable plant extracts, as well as the effects of the combination of these extracts, on the differentiation of preadipocytes or adipocytes into beige adipocytes. More generally the Applicant evaluated the orientation of a white phenotype towards a beige phenotype.
Preadipocytes coming from humans are used for the cellular differentiation study. The three donors are those of the cytotoxicity study (I) above.
(§1) The preadipocytes are isolated by digestion and centrifugation in accordance with the protocol described for the cytotoxicity study (I) above. The preadipocytes are spread at high density on microtiter plate 96 and cultivated according to the protocol described for the lipid accumulation study (II). The placing in contact with the basolateral medium is performed according to the protocol described for the lipid accumulation study (II).
After the culture, the differentiated cells are fixed with a 4% paraformaldehyde solution then colored with an anti-UCP1 fluorescent antibody available from Sigma-Aldrich under the reference U6382. […]
The quantification is based on fluorescence intensity measurements on images. […]
Fluorescence microphotographs are performed to quantify the UCP1 expression. […]

[2] = test system: differentiated preadipocytes; assay: Adipose tissue energy metabolism study, ATP production (Mitochondrial ToxGlo); format: cell-based, human; settings: differentiated cells; rotenone 400 nM, 2 hours
Procedure: In order to study the energy metabolism, the ATP production is measured in the differentiated preadipocytes. This provides information on the presence of mitochondria and their activity. Here, the Mitochondrial ToxGlo® test available from Promega under the reference G8000 is used.
The test includes placing preadipocytes in contact with an ATP detection reagent. […] The ATP detection reagent comprises luciferin, ATPase inhibitors and Ultra-Glo® thermostable luciferase. The values are normalized with a DAPI quantification. The Normalization is carried out exclusively in relation to the basolateral medium.
Preadipocytes coming from humans are used for the energy metabolism study. The three donors are those of the cytotoxicity study (I) above.
as §1
The quantification of the ATP synthesis is performed on differentiated cells.
The basolateral medium (BM) comprising the bioavailable extracts of the Caco-2 cell system is harvested for the test. […]

preadipocytes [3] = assay: Cellular viability / mitochondrial activity (MTS formazan, Cell Titer 96 AQueous One); format: cell-based; settings: human preadipocytes; relative to FBS 1% base control; 0.2% triton
Procedure: The cytotoxic effects of bioavailable plant extracts and their combinations was evaluated on preadipocytes. Two technical approaches were implemented: • the evaluation of the cellular viability by the measurement of the production of formazan by active (therefore living) cells; and • the analysis of the damage of cell membranes by the measurement of lactate dehydrogenase (LDH) in the cell culture medium.
The evaluation of the cellular viability is performed with the Cell Titer 96® AQueous One Solution Cell Proliferation Assay test kit available from Promega under the reference G3580.
In this test, the compound MTS-tetrazolium (3-(4,5-dimethylthiazol-2-yl)-5-(3-carboxymethoxyphenyl)-2-(4-sulfophenyl)-2H-tetrazolium) is transformed by active (living) cells in a culture medium in colored formazan. The transformation of MTS-tetrazolium is performed by the mitochondria in the cells. Formazan is soluble in the culture medium. The quantity of formazan is directly proportional to the number of living cells and may be measured by spectrophotometry (absorbance).
In practice, the cellular viability test is therefore based on the mitochondrial activity of the cells.
As a result, the viability study may provide precious information for the energy metabolism study (IV). […]
The cellular viability is measured directly in the wells of the microtiter plate. […]

preadipocytes [4] = assay: Cytotoxicity study of bioavailable plant extracts on human preadipocytes (LDH release, CytoTox 96); format: cell-based; settings: relative to FBS 1% base control, 0.2% triton
Procedure: The analysis of the damage of cell membranes is performed with the CytoTox 96® Non-Radioactive Cytotoxicity Assay kit available from Promega under the reference G1780. This test is based on the principle that cells having a damaged cell membrane release […] (LDH) into the culture medium. LDH is measured by supplying in the medium lactate, oxidized nicotinamide adenine dinucleotide (NAD+) and iodonitrotetrazolium purple as substrates in presence of diaphorase. Red formazan is then created. The red formazan is proportional to the LDH released by the cells. The Applicant evaluated the cytotoxic effects of a multitude of bioavailable plant extracts, as well as the cytotoxic effects of the combination of these extracts, on preadipocytes coming from various donors. The cytotoxic effects of bioavailable plant extracts and their combinations was evaluated on preadipocytes. […] An extract is considered as cytotoxic if the LDH level measured is greater than or equal to 20% in relation to the LDH level measured with the control extract. […] The results are expressed in percentages in relation to the control extract; except for the LDH test, for which the results are expressed as percentages of the cell lysis control (average+/− SEM), which represents the positive control for the cytotoxicity (the control is fixed at 100%). […]

Molecule: C=C[C@@]1(C)CC(=O)[C@]2(O)[C@@]3(C)[C@@H](O)CCC(C)(C)[C@@H]3[C@H](O)[C@H](OC(C)=O)[C@@]2(C)O1 [Forskolin]
- Glycerol % Differentiated (adipocytes): 151.62** % Differentiated
- NEFA % Differentiated (adipocytes): 179.70** % Differentiated

Molecule: O=C(Nc1ccccc1)c1cc([N+](=O)[O-])ccc1Cl [GW9662]
- Lipid accumulation % Differentiated (preadipocytes [1]): 30.59* % Differentiated
- UCP1 expression (total cell normalization) % Differentiated (UCP1): 83.38 % Differentiated

Molecule: CC(C)NCC(O)c1ccc(O)c(O)c1 (stereo not drawn) [Isoproterenol]
- Glycerol % Differentiated (adipocytes): 213.97** % Differentiated
- NEFA % Differentiated (adipocytes): 241.48** % Differentiated

Molecule: C=C(C)[C@H]1Cc2c(ccc3c2O[C@@H]2COc4cc(OC)c(OC)cc4[C@@H]2C3=O)O1 [Rotenone, rotenone]
- ATP production % Differentiated [2]: 27.95** % Differentiated

Molecule: triton [Lysis control]
- Mitochondrial Activity (viability) % Base control (preadipocytes [3]): 23.78** % Base control
- Cytotoxicity % Base control (release of LDH) (preadipocytes [4]): 1,252.05** % Base control
